# Experimental data published in a melting point compilation (Tetko et al.; mined from patent text by program, amines drawn as free bases though some values may be those of a salt).
row,melting point [°C],Structure (SMILES)
1,154 to 159,CS(=O)(=O)O[C@H]1CC[C@H](Nc2ccnc3cc(Cl)ccc23)CC1
2,184,CN(C)c1cc(OC(F)(F)F)cc2sc(N)nc12
3,258,CC(=O)Nc1ccc(Nc2c(NCc3ccco3)cc(C(=O)O)cc2S(=O)(=O)Nc2ccccc2NC(C)=O)cc1
4,137 to 138,CCCCC(Br)C(=O)c1cc(NC(C)=O)ccc1O (stereo not drawn)
5,184 to 185,Cc1cn(Cc2ccc(F)cc2)c(C)c1C(=O)CC(=O)C(=O)O
6,158 to 159,CC(C)C(NC(=O)OCc1ccncc1)C(=O)NC(Cc1ccccc1)C(O)C(Cc1ccccc1)NC(=O)C(NC(=O)OCc1ccncc1)C(C)C (stereo not drawn)
7,> 200,CCOC(=O)c1ccc(N(C)Cc2ccc3nc(C)[nH]c(=O)c3c2)s1
8,219 to 223,CC(=O)NCC1CN(c2ccc(N3CCN(C4=NCCS4)CC3)c(F)c2)C(=O)O1 (stereo not drawn)
9,223 to 225,COc1ccc(C2NCc3c2[nH]c2ccccc2c3=O)cc1OC (stereo not drawn)
10,150 to 151,Cn1nc(C=O)c(Br)c1C(C)(C)CNC(=O)c1ccccc1
11,70 to 73,CCCCCCCCCCCCCCCCCCN1C(=O)CC(c2cc(C(C)(C)C)c(O)c(C(C)(C)C)c2)C1=O (stereo not drawn)
12,173 to 175,CCN(C(=O)Cn1c(=O)n(C)c2nc(-c3ccccc3)nc(OC)c21)c1ccccc1
13,257 to 259,CCCc1ccnc2c(=O)[nH]c(-c3cc([N+](=O)[O-])ccc3OCC)nc12
14,282 to 284,O=S1(=O)N=C(NC2CCCCC2)Nc2cc(Cl)sc21
15,175 to 176,CC(C)(C)c1ccccc1N1CCN(C(=O)CCC(=O)O)CC1
16,196 to 198,Cc1nc(COc2ccc3c(c2)c(SC(C)(C)C)c(CC(C)(C)C(=O)O)n3Cc2ccc(Cl)cc2)cs1
17,95 to 97,CC(C)(C)NS(=O)(=O)c1cccnc1F
18,226 to 229,Cc1cc(OCC(=O)O)c2sc3ccccc3c(=O)c2c1C
19,192 to 194,Cc1ccc(C(=O)O)cc1NC(=O)C(CS)Cc1ccccc1 (stereo not drawn)
20,207 to 208,COc1cc2ncnc(N3CCN(C(=S)Nc4cccc(NC(C)=O)c4)CC3)c2cc1OC
21,100 to 102,CN1C(=O)CC[C@]2(C)c3ccc(-c4ccc(F)c(F)c4F)cc3CC[C@@H]12
22,61 to 62,CCOC(=O)C=Cc1cn(CCCC2(C)OCCO2)c2ccccc12
23,180 to 181,COc1cc(COc2nn(-c3ccccc3)cc2C=O)ccc1OCc1nc(N2CCCCC2)sc1C

row,melting point [°C],Structure (SMILES)
1,190,COC(=O)c1cc(NS(C)(=O)=O)c2cc(Cc3ccc(F)cc3)cnc2c1O
2,91 to 92,COC(CNC(=O)C=CC(=O)O)OC
3,81.8 to 83.8,c1cc(C2NCCc3sccc32)ccn1 (stereo not drawn)
4,59 to 60,Cc1ccc(CC(N)=NO)cc1C
5,164 to 166,CC(=O)NCCC1=C(C(C)C)Cc2cnc3c(c21)CCO3
6,188 to 193,CC(=Cc1ccc(OCCCNc2ccc(Cl)cc2)cc1)C(=O)O
7,234 to 235,CC(=O)Nc1ccc(OC(C)CN2CCN(CCc3ccc(C(=O)O)cc3)CC2)cc1 (stereo not drawn)
8,148 to 150,CC(=O)Nc1ccc(OC(=O)c2cc(OC(C)=O)ccc2OC(C)=O)cc1
9,219 to 221,CCCc1nc(Nc2ccc3cn[nH]c3c2)nc(NC2CCN(S(C)(=O)=O)CC2)n1
10,66 to 67.2,CCOC(=O)c1cccc(O)c1O
11,160 to 162,CCCc1nc2ccccc2[nH]1
12,97 to 98,Cc1cc(NC(=O)C(=O)N(C(C)C)C(C)C)cc(C)c1S(=O)(=O)C[N+](=O)[O-]
13,165 to 167,CN1Cc2csc(=S)n2-c2ccc(F)c(F)c21
14,234 to 235,Cc1c(OCC(F)(F)F)ccnc1CS(=O)c1nc2cc(-n3ccnc3)c(F)cc2[nH]1 (stereo not drawn)
15,36 to 37,COC(=O)CCC(O)C(=O)OC(C)(C)C (stereo not drawn)
16,148 to 149,CCN1C(=O)CCc2cc(Sc3cccc([C@@]4(O)CCO[C@@H](C)C4)c3)ccc21
17,163,c1ccc(COc2n[nH]cc2-c2ccccc2)cc1
18,132,Cc1noc(NS(=O)(=O)c2ccc(-c3ccccc3)s2)c1Br
19,77 to 80,CCCCOc1cc(=O)n(C)c2ccccc12
20,85.5 to 87,CC(C)(N=C=O)c1ccc2cc(C(C)(C)N=C=O)ccc2c1
21,130 to 131,CC(C)(C)OC(=O)NS(N)(=O)=O
22,168,CC(C#Cc1ccc(C=Cc2ccccc2)o1)N(O)C(N)=O (stereo not drawn)
23,64 to 67,CC(C)[C@H](NC(=O)OCc1ccccc1)C(=O)OC[C@H]1O[C@@H](n2cc(F)c(=O)[nH]c2=O)[C@H](O)[C@@H]1O

row,melting point [°C],Structure (SMILES)
1,135 to 136,O=Cc1cc2n(c1)CCc1ccccc1C2=O
2,158 to 161,CC(C)(C)N1CN(C(C)(C)C)C(N)=C2C=NN=C21
3,149 to 151,Nc1ccc(N2CCOCC2)c(C(F)(F)F)c1
4,113 to 115,COC(=O)CSc1ncnc(N2CCc3ccccc3CC2)c1[N+](=O)[O-]
5,115 to 119,Cn1nc(O)cc1C(F)F
6,177 to 179,COc1ccc(N2CCN(c3c(C)c(C)c4c(c3-c3ccc(N(C)C)cc3)CC(C)(C)O4)CC2)cc1
7,181 to 185,COc1ccc(-c2sc3c(c2CN(C)Cc2ccccc2)c(=O)c(C=O)cn3Cc2ccccc2OC)cc1
8,131,CCCN(CCCN1C(=O)c2ccccc2S1(=O)=O)C1CCc2cccc(OC)c2C1 (stereo not drawn)
9,138 to 139,CC1(C)COC(c2ccc(F)cc2Cl)=N1
10,236 to 237,NS(=O)(=O)c1cc(C(=O)O)cc(S(=O)(=O)Cc2ccccc2)c1Cl
11,67 to 69,COc1ccc(-n2c(C)ccc2C)c(F)c1
12,239 to 241,O=C1NC(=O)C2(CCOc3ccc(F)cc32)N1 (stereo not drawn)
13,162 to 164,COc1ccc(-c2nc(Sc3ccc(C(C)(C)C)cc3)n(C3CCCCO3)c2-c2ccc(OC)cc2)cc1 (stereo not drawn)
14,90,CC(C#N)c1ccc(C(=O)c2ccc(Cl)s2)cc1 (stereo not drawn)
15,190 to 191,CC(=O)OC(C)OC1=C(C(=O)Nc2cccc(C)n2)N(C)S(=O)(=O)c2ccccc21 (stereo not drawn)
16,38 to 40,Fc1ccc(-c2ccc(C(F)(F)F)cn2)cc1
17,79 to 81,Cn1cc(C(O)(c2ccc3c(cnn3C(=O)C3CCC3)c2)C(F)(F)F)c2ccccc21 (stereo not drawn)
18,220 to 222,O=C(N1CCCC1)N1Cc2c(-c3noc(C4CC4)n3)ncn2-c2cccc(F)c21
19,186 to 188,O=C1NCCSc2ccsc21
20,89 to 90,Cn1nc(-c2cc([N+](=O)[O-])c(O)cc2F)c(Cl)c1C(F)(F)F
21,107 to 109,CC(C)(C)c1cc(-c2nn(CCCCl)c3ncccc23)cc(C(C)(C)C)c1O
22,99,CCS(=O)(=O)c1ccc(C(=O)C2C(=O)CCCC2=O)c(Cl)c1C1=NOC2OCCC12 (stereo not drawn)
23,126,COc1ccc(N2CCN(c3ccccn3)CC2)cc1

row,Structure (SMILES),melting point [°C]
1,CN(C)c1cccc(CN2CC=C(c3c[nH]c4ccc(Cl)cc34)CC2)c1,193 to 195
2,O=C(NCCO[N+](=O)[O-])c1ccoc1,80 to 82
3,CC#Cc1c(C#N)nn(-c2c(Cl)cc(C(F)(F)F)cc2Cl)c1N,226 to 228
4,Cc1nc2ccccc2c(=O)n1-c1ccc(Cl)cc1,141 to 142
